Results on 21 compounds are retold here after patent US5610310A, “Cyclic lipid derivatives as potent PAF antagonists” (Pohang Iron & Steel Co., Ltd, priority 1995, dated 1997).

Assay [1] addresses T1, PAF receptor (rabbit platelet membranes) (Oryctolagus cuniculus, UniProt G1TEI7).
T1 construct: Rabbit platelets were prepared by centrifugation and washing; tissue Pel-Freez (Rogers, AR); host or cells: rabbit platelets (washed, from citrated whole blood; lysed membranes)
The assay can be described thus: PAF Receptor Binding Assay. Particulars: 0.6 nM [^3 H]C18 -PAF, 60 minutes, room temperature, calculated as IC50/2. As to the method: PAF Receptor Binding Assay Citrated whole rabbit blood was obtained from Pel-Freez(Rogers, AR). Rabbit platelets were prepared by centrifugation and washing. The platelets were lysed by freeze-thawing and sonification; Platelet membranes were prepared by centrifugation and washing. Final membrane preparation were stored frozen in 10 mM Tris/5 mM MgCl2 /2 mM EDTA (TME buffer, pH 7.0) with 0.25M sucrose added for membrane stabilization. […] The final volume of the assay was 100 μl. […] The […] and removed. The bound radioactivity was quantitated with a Berthold TLC-Linear Analyzer model LB2842. […] Experiments were repeated at least once. […] Ki values of inhibitory binding constants were calculated according to the methods of the literature[Cheng et al., Biochem.

The test system of assay [2] is PAF-induced platelet aggregation, rabbit platelet-rich plasma. Put plainly: Inhibitory action on PAF-induced platelet aggregation. Format: cell-based, rabbit (New Zealand white). As to conditions: Oryctolagus cuniculus, rabbit PRP, PAF 5×10^-9 M, 37° C. The protocol: Inhibitory action on PAF-induced platelet aggregation Blood was collected from the […] of conscious New Zealand white male rabbits weighing 2 to 3 kg using citric acid as an anticoagulant (one volume pan of 3% citric acid relative to 9 volume parts of the whole blood). […] PRP was diluted with PPP to adjust the number of platelets to about 3×10^5 /μl. […] Platelet aggregation was then examined by means of turbidimetry [Born, Nature, 194, 927(1962)] with dual channel aggegometer (Chrono-Log. Corp., Havertown, Pa.). As the control, physiological saline without test sample was used. The platelet aggregation inhibiting activities of the test sample are expressed as IC50, that is the concentration of the compound at which 50% of the aggregation is inhibited.

The subject of assay [3] is PAF-induced [^14 C]-serotonin release, rabbit platelets. The assay can be described thus: Inhibitory action on PAF-induced [^14 C]-serotonin release. Type of assay: cell-based, rabbit (New Zealand white). Particulars: Oryctolagus cuniculus, Platelet; test compound 2 × 10^-7 M; PAF 1×10^-9 M. As to the method:
Inhibitory action on PAF-induced [^14 C]-serotonin release
Blood was collected from the hearts of conscious New Zealand white male rabbits weighing 2 to 3 kg. The blood was immediately subjected to a centrifuge at 1400 rpm for 10 minutes to obtain platelet rich plasma(PRP).PRP was incubated with a trace mount of [^14 C]-serotonin for 20 minutes at 22° C. Prelabelled platelets were prepared by centrifugation at 3500 rpm for 10 minutes. The test compound was added to 80 μl of [^14 C] serotonin-labeled platelets in plastic test tubes, and the mixture was incubated for 2 minutes. PAF (1×10^-9 M) was then added to the reaction mixture and incubated for additional 2 minutes at which time 10 μl of cold formaldehyde was added to stop the reactions. The tubes were immediately cooled to 4° C. and centrifuged at 12000 rpm for 2 minutes. The supernatants (80 μl) were assayed for percentage of [^14 C] serotonin release by the conventional methods of measuring ^14 C counts.

T1 sequence (G1TEI7 1-342): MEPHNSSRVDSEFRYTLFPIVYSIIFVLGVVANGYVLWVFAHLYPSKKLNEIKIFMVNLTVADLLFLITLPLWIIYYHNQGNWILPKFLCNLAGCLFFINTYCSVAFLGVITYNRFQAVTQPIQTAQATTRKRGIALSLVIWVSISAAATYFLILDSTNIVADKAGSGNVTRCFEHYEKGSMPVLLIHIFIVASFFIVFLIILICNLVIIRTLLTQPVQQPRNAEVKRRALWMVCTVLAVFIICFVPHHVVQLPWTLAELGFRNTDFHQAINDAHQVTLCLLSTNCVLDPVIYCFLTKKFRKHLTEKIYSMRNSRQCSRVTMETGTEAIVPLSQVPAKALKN

Consider `CCCCCCCCCCCCCCCCCCNC(=O)OC[C@H]1C[C@H](COC(=O)N(Cc2cccc[n+]2CC)C(C)=O)S1` (relative stereo) [Example 27, trans-2-[[N-Acetyl-N-[[[4-[[(Octadecylcarbamoyl)oxy]methyl]-2-thietanyl]methoxy]carbonyl]amino]methyl]-1-ethyl-pyridinium chloride], for which, in assay [1], the Ki (commonly a measure of affinity in units of concentration, obtained from inhibition or displacement) was 0.0043 µM. For the same compound, the IC50 (as a rule, the concentration needed to halve the response being measured) in assay [2] came out at 0.057 µM.

`CCCCCCCCCCCCCCCCCCNC(=O)OC[C@H]1C[C@H](COC(=O)N(Cc2cccc[n+]2CC)C(C)=O)C1` [Example 19, trans-2-[[N-Acetyl-N-[[[3-[[(octadecylcarbamoyl)oxy]methyl]-1-cyclobutyl]methoxy]carbonyl]amino]methyl]-1-ethyl-pyridinium iodide]: in assay [1], the Ki was 0.0043 µM. Further, in assay [2], the IC50 is 0.056 µM.

As to `CCCCCCCCCCCCCCCCCCNC(=O)OCC1(COC(=O)CCCCC[n+]2cccc3ccccc32)CSC1` [Example 41, N-[5-[[[3-[[(Octadecylcarbamoyl)oxy]methyl]-3-thietanyl]methoxy]carbonyl]pentyl]quinolinium bromide], the inhibitory constant (Ki) in assay [1] is 0.03 µM. The same compound showed an IC50 in assay [2] of 0.057 µM.

For `CCCCCCCCCCCCCCCCCCNC(=O)OC[C@@H]1C[C@@H](COC(=O)N(Cc2cccc[n+]2CC)C(C)=O)N1C(C)=O` (relative stereo) [Example 43, 2-[[N-Acetyl-N-[[[4-[[(octadecylcarbamoyl)oxy]methyl]-1-acetylazetidine-2-yl]methoxy]carbonyl]amino]methyl]-1-ethyl-pyridinium chloride], the inhibition constant Ki in assay [1] is 0.035 µM. 0.029 µM corresponded to half-maximal inhibition in assay [2] (IC50).

Consider `CCCCCCCCCCCCCCCCNC(=O)OCC1(COC(=O)N(Cc2cccc[n+]2CC)C(C)=O)COC1` [Example 8, 2-[[N-Acetyl-N-[[[3-[[(hexadecylcarbamoyl)oxy]methyl]-3-oxetanyl]methoxy]carbonyl]amino]methyl]-1-ethyl-pyridinium iodide], for which the Ki in assay [1] was 0.095 µM. Moreover, in assay [2], 0.093 µM corresponded to half-maximal inhibition (IC50).

As for `CCCCCCCCCCCCCCCCOC[C@H]1C[C@H](COC(=O)N(Cc2cccc[n+]2CC)C(C)=O)S1` (relative stereo) [Example 32, trans-2-[[N-Acetyl-N-[[[4-[(hexadecyloxy)methyl]-2-thietanyl]methoxy]carbonyl]amino]methyl]-1-ethyl-pyridinium chloride], the Ki in assay [1] was 0.02 µM. Moreover, in assay [2], the IC50 was determined as 0.052 µM.

As to `CCCCCCCCCCCCCCCCCCNC(=O)OCC1(COC(=O)N(Cc2cccc[n+]2CC)C(C)=O)C[S+]([O-])C1` (centres unmarked) [Example 37, 2-[[N-Acetyl-N-[[[3-[[(octadecylcarbamoyl)oxy]methyl]thietane 1-oxide-3-yl]methoxy]carbonyl]amino]methyl]-1-ethyl-pyridinium iodide], the Ki in assay [1] was 0.0093 µM. In addition, 0.125 µM corresponded to half-maximal inhibition in assay [2] (IC50).

As to `CCCCCCCCCCCCCCCCOCC1(COC(=O)CCCC[n+]2cccc3ccccc32)CSC1` [Example 42, N-[4-[[[3-[(Hexadecyoxy)methyl]-3-thietanyl]methoxy]carbonyl]butyl]quinolinium bromide], the IC50 in assay [2] worked out at 0.658 µM.

For the compound `CCCCCCCCCCCCCCCCNC(=O)OC[C@H]1C[C@H](COC(=O)N(Cc2cccc[n+]2CC)C(C)=O)S1` (relative stereo) [Example 29, trans-2-[[N-Acetyl-N-[[[4-[[(hexadecylcarbamoyl)oxy]methyl]-2-thietanyl]methoxy]carbonyl]amino]methyl]-1-ethyl-pyridinium chloride], in assay [1], the Ki was 0.0098 µM. The same compound came in with an IC50 in assay [2] of 0.021 µM.

`CCCCCCCCCCCCCCCCCCNC(=O)OCC1(COC(=O)N(Cc2cccc[n+]2CC)C(C)=O)CS(=O)(=O)C1` [Example 38, 2-[[N-Acetyl-N-[[[3-[[(octadecylcarbamoyl)oxy]methyl]thietane 1,1-dioxide-3-yl]methoxy]carbonyl]amino]methyl]-1-ethyl-pyridinium iodide]: the Ki in assay [1] is 0.278 µM. Further, the IC50 in assay [2] was determined as 0.178 µM.

For `CCCCCCCCCCCCCCCCCCNC(=O)OCC1(COC(=O)N(Cc2cccc[n+]2CC)C(C)=O)CCCC1` [Example 16, 2-[[N-Acetyl-N-[[[1-[[(octadecylcarbamoyl)oxy]methyl]-1-cyclopentyl]methoxy]carbonyl]amino]methyl]-1-ethyl-pyridinium iodide], the inhibition constant Ki in assay [1] is 0.0038 µM. Also, the IC50 in assay [2] came out at 0.573 µM.

In assay [2], `CCCCCCCCCCCCCCCCCCNC(=O)OC[C@H]1C[C@H](COCCCC[n+]2cccc3ccccc32)S1` (relative stereo) [Example 35, trans-N-[4-[[4-[[(Octadecylcarbamoyl)oxy]methyl]-2-thietanyl]methoxy]butyl]quinolinium bromide] gave an IC50 of 0.275 µM. This counts as sub-micromolar.

In turn, `CCCCCCCCCCCCCCCCNC(=O)OC[C@@H]1C[C@@H](COC(=O)N(Cc2cccc[n+]2CC)C(=O)c2ccccc2OC)S1` (relative stereo) [Example 31, trans-2-[[N-(2-Methoxy)benzoyl-N-[[[4-[[(hexadecylcarbamoyl)oxy]methyl]-2-thietanyl]methoxy]carbonyl]amino]methyl]1-ethyl-pyridinium chloride] registered an IC50 in assay [2] of 0.069 µM.

For the compound `CCCCCCCCCCCCCCCCNC(=O)OCC1(COC(=O)N(Cc2cccc[n+]2CC)C(C)=O)CCCC1` [Example 20, 2-[[N-Acetyl-N-[[[1-[[(hexadecylcarbamoyl)oxy]methyl]-1-cyclopentyl]methoxy]carbonyl]amino]methyl]-1-ethyl-pyridinium iodide], in assay [1], the Ki was 0.0012 µM. The same compound had a half-inhibitory concentration (IC50) in assay [2] of 0.35 µM.

For the compound `CCCCCCCCCCCCCCCCCCNC(=O)OC[C@H]1C[C@H](COC(=O)N(Cc2cccc[n+]2CC)C(C)=O)O1` (relative stereo) [Example 5, trans-2-[[N-Acetyl-N-[[[4-[[(octadecylcarbamoyl)oxy]methyl]-2-oxetanyl]methoxy]carbonyl]amino]methyl]-1-ethyl-pyridinium iodide], testing at 0.2 µM in assay [3] gave an inhibition of 97%.

In assay [2], `CCCCCCCCCCCCCCCCCCNC(=O)OC[C@H]1C[C@H](COC(=O)CCCC[n+]2cccc3ccccc32)S1` (relative stereo) [Example 34, trans-N-[4-[[[4-[[(Octadecylcarbamoyl)oxy]methyl]-2-thietanyl]methoxy]carbonyl]butyl]quinolinium bromide] gave an IC50 of 0.35 µM.

With `CCCCCCCCCCCCCCCCCCNC(=O)OC[C@@H]1C[C@H](COC(=O)N(Cc2cccc[n+]2CC)C(C)=O)S1` (relative stereo) [Example 28, cis-2-[[N-Acetyl-N-[[[4-[[(octadecylcarbamoyl)oxy]methyl]-2-thietanyl]methoxy]carbonyl]amino]methyl]-1-ethyl-pyridinium chloride], the Ki in assay [1] was 0.0098 µM. The compound further displayed an IC50 in assay [2] of 0.061 µM.

With `CCCCCCCCCCCCCCCCOCC1(COC(=O)N(Cc2cccc[n+]2CC)C(C)=O)COC1` [Example 9, 2-[[N-Acetyl-N-[[[3-[(hexadecyloxy)methyl]-3-oxetanyl]methoxy]carbonyl]amino]methyl]-1-ethyl-pyridinium iodide], in assay [1], the Ki was 0.11 µM. Also, half-maximal inhibition in assay [2] (IC50) required 0.219 µM.

Take `CCCCCCCCCCCCCCCCCCNC(=O)OCC1(COC(=O)CCCC[n+]2ccsc2)CCCC1` [Example 22, 3-[4-[[[1-[[(Octadecylcarbamoyl)oxy]methyl]-1-cyclopentyl]methoxy]carbonyl]butyl]thiazolium bromide]: in assay [2], the IC50 was 1.14 µM.

On to `CCCCCCCCCCCCCCCCCCNC(=O)OCC1(COC(=O)CCCC[n+]2cccc3ccccc32)CCCC1` [Example 23, N-[4-[[[1-[[(Octadecylcarbamoyl)oxy]methyl]1-cyclopentyl]methoxy]carbonyl]butyl]quinolinium bromide], for which the Ki in assay [1] is 0.0094 µM. The IC50 in assay [2] was 0.095 µM.

Consider `CCCCCCCCCCCCCCCCCCNC(=O)OC[C@@H]1C[C@@H](COC(=O)N(Cc2cccc[n+]2CC)C(=O)c2ccccc2OC)S1` (relative stereo) [Example 30], for which the IC50 in assay [2] was determined as 0.084 µM.
